Test results as given in US20240270751A1, “Pyrazolopyridinone Compounds” (BeiGene Ltd., priority 2021, published 2024).

Key:
DGKα = DGKα (Homo sapiens (Human), UniProt P23743); experiment: Biochemical DGK IC50 assay, DGKα ADP-Glo assay; conditions: 7.5 nM enzyme, 140 μM ATP, 80 μM DAG
Method in brief: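 ADP-Glo read-out with full-length DGKα on DAG/PS lipid micelle substrate in 25 mM HEPES pH 7.0, 0.5 mM EDTA, 160 mM octyl β-D-glucopyranoside. Compound final concentrations spanned 1.55˜10000 nM or 23.3˜150000 nM.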

DGKζ = DGKζ (Homo sapiens (Human), UniProt Q13574); experiment: Biochemical DGK IC50 assay, DGKζ ADP-Glo assay; conditions: 0.5 nM enzyme, 140 μM ATP, 80 μM DAG; read-out: DGKζ ADP-Glo assay IC50
Method in brief: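 Full-length human DGKζ, His-TEV tagged and purified from baculovirus-infected Sf9 cells, assayed by ADP-Glo with DAG/PS lipid micelle substrate prepared in 25 mM HEPES pH 7.0 with octyl glucoside. Final compound concentrations spanned 1.55–10000 nM or 23.3–150000 nM.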

Chain of DGKα (P23743 whole entry): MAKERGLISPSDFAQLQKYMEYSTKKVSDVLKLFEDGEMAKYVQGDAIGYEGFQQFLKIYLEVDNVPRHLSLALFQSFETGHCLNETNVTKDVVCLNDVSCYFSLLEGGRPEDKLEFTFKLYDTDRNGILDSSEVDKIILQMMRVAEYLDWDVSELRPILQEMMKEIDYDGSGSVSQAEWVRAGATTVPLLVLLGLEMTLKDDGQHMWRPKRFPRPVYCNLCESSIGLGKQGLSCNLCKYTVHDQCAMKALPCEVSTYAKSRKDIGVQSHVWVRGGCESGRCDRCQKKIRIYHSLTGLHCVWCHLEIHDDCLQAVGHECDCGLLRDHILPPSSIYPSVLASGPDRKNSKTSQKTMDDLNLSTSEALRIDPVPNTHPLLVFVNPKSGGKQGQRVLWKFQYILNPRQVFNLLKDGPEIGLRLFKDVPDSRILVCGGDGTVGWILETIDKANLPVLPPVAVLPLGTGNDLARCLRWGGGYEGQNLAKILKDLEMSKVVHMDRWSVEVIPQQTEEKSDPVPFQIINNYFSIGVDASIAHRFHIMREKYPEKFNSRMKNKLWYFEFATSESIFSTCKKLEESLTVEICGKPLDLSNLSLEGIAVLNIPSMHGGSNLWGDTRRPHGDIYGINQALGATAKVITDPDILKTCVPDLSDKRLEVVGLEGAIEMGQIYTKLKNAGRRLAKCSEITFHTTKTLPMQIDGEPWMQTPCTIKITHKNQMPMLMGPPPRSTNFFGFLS
Chain of DGKζ (Q13574 other isoform, or with tags, fused parts or gaps): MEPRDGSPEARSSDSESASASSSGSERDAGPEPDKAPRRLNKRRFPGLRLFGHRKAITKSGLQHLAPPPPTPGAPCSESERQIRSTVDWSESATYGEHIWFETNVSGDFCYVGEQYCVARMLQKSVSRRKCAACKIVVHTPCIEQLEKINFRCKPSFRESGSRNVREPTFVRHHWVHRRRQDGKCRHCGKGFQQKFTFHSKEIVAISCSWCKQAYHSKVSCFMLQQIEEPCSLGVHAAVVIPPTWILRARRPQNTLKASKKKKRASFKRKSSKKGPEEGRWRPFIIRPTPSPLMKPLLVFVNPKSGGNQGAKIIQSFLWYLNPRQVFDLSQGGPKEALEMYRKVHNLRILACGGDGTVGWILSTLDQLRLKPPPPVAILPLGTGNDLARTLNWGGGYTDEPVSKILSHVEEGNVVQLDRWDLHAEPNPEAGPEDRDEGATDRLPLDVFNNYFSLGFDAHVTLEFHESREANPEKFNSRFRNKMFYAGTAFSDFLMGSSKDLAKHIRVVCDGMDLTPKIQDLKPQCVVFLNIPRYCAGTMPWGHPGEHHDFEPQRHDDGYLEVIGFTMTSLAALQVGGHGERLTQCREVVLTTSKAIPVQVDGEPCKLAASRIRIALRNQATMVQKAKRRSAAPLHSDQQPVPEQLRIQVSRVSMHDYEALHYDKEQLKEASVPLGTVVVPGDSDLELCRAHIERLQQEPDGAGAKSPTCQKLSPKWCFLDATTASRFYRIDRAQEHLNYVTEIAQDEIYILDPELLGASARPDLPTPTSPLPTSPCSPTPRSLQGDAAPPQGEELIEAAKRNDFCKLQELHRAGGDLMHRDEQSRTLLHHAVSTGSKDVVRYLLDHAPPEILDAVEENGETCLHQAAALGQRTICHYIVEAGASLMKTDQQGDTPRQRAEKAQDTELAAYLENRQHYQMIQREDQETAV

| Compound | IC50 (DGKα) [nM] | IC50 (DGKζ) [nM] |
| --- | --- | --- |
| CC[C@H]1CN(C(C)c2cccc(CO)c2)[C@H](CC)CN1c1cc(=O)n(C)c2cn(CC#N)nc12 (single isomer, unassigned) [Compound A121a] | 1300 | 3020 |
| CC[C@H]1CN(C(C)c2ncc(OC(F)(F)F)cc2F)[C@H](CC)CN1c1cc(=O)n(C)c2cn(CC#N)nc12 (single isomer, unassigned) [Compound A362b] | 33 | 300 |
| CC[C@H]1CN(C(C)c2ccc3c(c2)NCCO3)[C@H](CC)CN1c1cc(=O)n(C)c2cn(CC#N)nc12 (stereo partly drawn) [Compound A138] | 1280 | 480 |
| CC[C@H]1CN(C(C)c2nn(CC)cc2C)[C@H](CC)CN1c1cc(=O)n(C)c2cn(CC#N)nc12 (stereo partly drawn) [Compound A216] | > 10000 | 2370 |
| C#CCn1cc2c(n1)c(N1C[C@@H](C)N(C(C)c3ccc4nccnc4c3)C[C@@H]1C)cc(=O)n2C (stereo partly drawn) [Compound A21] | 5300 | 310 |
| CC[C@@H]1CN(c2cc(=O)n(C)c3cn(CC)nc23)[C@@H](C)CN1C(C)c1ccc2nccnc2c1 (single isomer, unassigned) [Compound A221a] | 1090 | 216 |
| C[C@@H]1CN(c2cc(=O)n(C)c3cn(CC#N)nc23)[C@@H](C)CN1Cc1ccc2nccnc2c1 [Compound A44] | 8100 | 610 |
| CCC(c1ccc2nccnc2c1)N1C[C@H](C)N(c2cc(=O)n(C)c3cn(CC#N)nc23)C[C@H]1C (stereo partly drawn) [Compound A255] | > 10000 | 194 |
| CC[C@H]1CN(C(C)c2ccc(CN3CCC(F)(F)CC3)nc2)[C@H](CC)CN1c1cc(=O)n(C)c2cn(CC#N)nc12 (single isomer, unassigned) [Compound A381a] | 459 | 290 |
| CC[C@@H]1CN(c2cc(=O)n(C)c3cn(CC#N)nc23)[C@@H](CC)CN1C(=O)c1ccc(C2CC2)cc1 [Compound A369] | 294 | 1090 |
| CC[C@H]1CN(C(C)c2ccc(F)cc2C(C)OC)[C@H](CC)CN1c1cc(=O)n(C)c2cn(CC#N)nc12 (stereo partly drawn) [Compound A327, 2-(7-((2S,5R)-2,5-diethyl-4-(1-(4-fluoro-2-(1-methoxyethyl)phenyl)ethyl)piperazin-1-yl)-4-methyl-5-oxo-4,5-dihydro-2H-pyrazolo[4,3-b]pyridin-2-yl)acetonitrile] | > 150000 | 19 |
| CC[C@H]1CN(C(C)c2ccc(OC)cc2)[C@H](CC)CN1c1cc(=O)n(C)c2cn(CC#N)nc12 (stereo partly drawn) [Compound A377] | 94 | 173 |
| CC[C@H]1CN(C(C)c2nc3cccnc3n2CC)[C@H](CC)CN1c1cc(=O)n(C)c2cn(CC#N)nc12 (single isomer, unassigned) [Compound A185a] | > 10000 | > 10000 |
| CC[C@@H]1CN(c2nc(=O)[nH]c3cn(CC#N)nc23)[C@@H](C)CN1C(C)c1ccc2nccnc2c1 (single isomer, unassigned) [Compound A183a] | 7740 | 110 |
| CC[C@H]1CN(C(C)c2cccc(=O)n2CC)[C@H](CC)CN1c1cc(=O)n(C)c2cn(CC#N)nc12 (stereo partly drawn) [Compound A207] | > 10000 | 4050 |
| CC[C@H]1CN(C(C)c2ccc3ncccc3c2)[C@H](CC)CN1c1cc(=O)n(C)c2cn(CC#N)nc12 (stereo partly drawn) [Compound A60] | 125 | 17 |
| COc1cnc2ccc(C(C)N3C[C@H](C)N(c4cc(=O)n(C)c5cn(CC#N)nc45)C[C@H]3C)cc2n1 (stereo partly drawn) [Compound A270, 2-(7-((2S,5R)-4-(1-(3-methoxyquinoxalin-6-yl)ethyl)-2,5-dimethylpiperazin-1-yl)-4-methyl-5-oxo-4,5-dihydro-2H-pyrazolo[4,3-b]pyridin-2-yl)acetonitrile] | 40100 | 169 |
| CC[C@@H]1CN(c2cc(=O)n(C)c3cn(CC(F)F)nc23)[C@@H](C)CN1C(C)c1ccc2nccnc2c1 (single isomer, unassigned) [Compound A222a] | 5250 | 452 |
